The source of these data is US20160067211A1, “PHARMACEUTICAL COMPOSITION” (Eberhard Karls Universitaet Tuebingen Medizinische Fakultaet, priority 2013, published 2016).

Assay [1] has as its system histon protein H3 acetylation in BLM melanoma cells. Briefly: Western blot of acetylated histon H3, BLM. The format is cell-based, human. Conditions: 100 μM, 24 hours, vs. DMSO control. The protocol:
FIG. 4: 6-PN and 8-PN induce a hyper acetylation in SK-MEL-28 melanoma cells. Western blot analysis of acetylated histon complex H3 in cellular lysates of BLM and SK-MEL-28 cells treated with 100 μM 6-PN or 8-PN for 1, 2, 4, 12 and 24 h, or with 100 μM SAHA (as reference HDACi) for 24 h. Equal protein loading was verified by vinculin staining (lower rows). At 24 hours (BLM) and 2 hours (SK-MEL-28) after the PN treatment a prominent up-regulation of ac-H3 is detectable. The protein expression levels were estimated performing a densitometric analysis.
(§1) The following antibodies were used: Anti-Vinculin and Anti-Actin (1:5000, Sigma-Aldrich), Anti-Acetyl-Histon H3 (1:5000, Millipore, Billerica, USA), Anti-Caspase-3 (1:1000), Anti-AKT, Anti-pAKT, Anti-ERK, Anti-pERK, […], Anti-p70S6 Kinase, and Anti-pS6 protein (1:1000), all from Cell Signaling, Frankfurt, Germany), Anti-LC3 (1:5000, Sigma-Aldrich).
An incubation of cells with HDACi induces generally a hyperacetylation of histon proteins. Therefore, the acetylation status of the histon protein H3 after treatment with 6-PN or 8-PN was investigated. Corresponding to the HDAC screening results, a direct effect was monitored. […] SAHA was used as control HDACi (at 100 μM, 24 hours treatment).

The subject of assay [2] is LC3 in BLM melanoma cells. Briefly: Western blot LC3 (autophagy), BLM. Conditions: 100 μM, after 12-24 hours. The format is cell-based, human. The protocol:
(A) Cell cycle FACS analyses of PI stained BLM and SK-MEL-28 melanoma cells. 100 μM of 8-PN-induced a G2 arrest in both cells. (B) FACS analyses of BLM and SK-MEL-28 melanoma cells treated with 100 μM 6-PN or 8-PN and stained for annexin V/PI; staurosporin was used as control for apoptosis induction and DMSO as vehicle control. […] (C) BLM and SK-MEL-28 melanoma cells were treated with 100 μM of PNs; TSA, SAHA and EMSO were used as controls.
as §1
Since it has been speculated that the formation of intracytoplasmic vacuoles in pancreatic or breast cancer cells by 6-PN and 8-PN observed in pervious studies might represent an induction of autophagy, this issue was further investigated on a molecular level. BLM and SK-MEL-28 melanoma cells were treated with 100 μM of 6-PN, 8-PN, SAHA or TSA (and with DMSO as control), and the treated cells were lysed for protein extraction after 1 hour, 2 hours, 4 hours, 12 hours and 24 hours. […]

For assay [3], the system named is prostate cancer cell line PC-3. Conditions: PC-3 in vitro; cited from earlier work.
The test system of assay [4] is breast cancer cells MCF-7. Particulars: cited from earlier work.

For the compound `CC(C)=CCc1c(O)cc(O)c2c1OC(c1ccc(O)cc1)CC2=O` (stereo not shown) [8-PN, 5,7-Dihydroxy-2-(4-hydroxy-phenyl)-8-(3-methyl-but-2-enyl)-chroman-4-one], the “histon complex H3 acetylation” value in assay [1] is “massive increase”. In addition, in assay [2], the “shift from LC3-I to LC3-II (autophagy)” value is given as “clearly induced the shift”. For the same compound, the antiproliferative effects entry in assay [3] is listed as “antiproliferative effects”. Moreover, the “effects on breast cancer cells compared with 17β-Estradiol” value in assay [4] is “imitates the effects of 17β-Estradiol”.
